Measured values reported in article doi:10.1101/2021.10.07.463234v2 (biorxiv, 2021).
Counter-ions that a name gives are not always drawn.

Target: SARS-CoV-2 Mac1 (Severe acute respiratory syndrome coronavirus 2, UniProt P0DTD1)
Assay: biochemical
Conditions: for inhibition at 100 µM: read-out: %inhibition

Row | SMILES | inhibition at 100 µM | %inhibition (100 µM, inhibitor)
1 | O=S(=O)(O)c1cc(O)ccc1O [Ethamsylate] | 0% | –
2 | C#C[C@]1(O)CC[C@H]2[C@@H]3CCc4cc(O)ccc4[C@H]3CC[C@@]21C [Ethinyl Estradiol] | 0% | –
3 | CCc1cc(C(N)=S)ccn1 [Ethionamide] | 19.8% | –
4 | CCC1(C)CC(=O)NC1=O (stereo not shown) [Ethosuximide] | 0% | –
5 | CCOC(=O)c1ccc(O)cc1 [Ethylparaben] | 2.11% | –
6 | C#C[C@]1(OC(C)=O)CC[C@H]2[C@@H]3CCC4=C[C@@H](OC(C)=O)CC[C@@H]4[C@H]3CC[C@@]21C [Ethynodiol diacetate] | 0% | –
7 | CC(O)(P(=O)(O)O)P(=O)(O)O [Etidronate] | 0% | –
8 | CCc1cccc2c3c([nH]c12)C(CC)(CC(=O)O)OCC3 (stereo not shown) [Etodolac] | 0% | –
9 | CC(C)(Oc1ccc(Cl)cc1)C(=O)OCCOC(=O)c1cccnc1 [Etofibrate] | 4.59% | –
10 | CCOC(=O)c1cncn1[C@H](C)c1ccccc1 [Etomidate] | 8.82% | –
11 | C#C[C@]1(O)CC[C@H]2[C@@H]3CCC4=CC(=O)CC[C@@H]4[C@H]3C(=C)C[C@@]21CC [Etonogestrel] | 0% | –
12 | COc1cc([C@@H]2c3cc4c(cc3[C@@H](O[C@@H]3O[C@@H]5CO[C@@H](C)O[C@H]5[C@H](O)[C@H]3O)[C@H]3COC(=O)[C@H]23)OCO4)cc(OC)c1O [Etoposide] | 25.5% | –
13 | Cc1ccc(-c2ncc(Cl)cc2-c2ccc(S(C)(=O)=O)cc2)cn1 [Etoricoxib] | 0% | –
14 | Cc1cc(C#N)cc(C)c1Oc1nc(Nc2ccc(C#N)cc2)nc(N)c1Br [Etravirine (TMC125)] | 5.29% | –
15 | CCOC(=O)/C=C(C)/C=C/C=C(C)/C=C/c1c(C)cc(OC)c(C)c1C [Etretinate] | 24.9% | –
16 | Cc1cc(C)c2c(c1)[C@@H](N(Cc1cc(C(F)(F)F)cc(C(F)(F)F)c1)c1nnn(C)n1)CCCN2C[C@H]1CC[C@H](C(=O)O)CC1 [Evacetrapib (LY2484595)] | 28.7% | –
17 | CO[C@H]1C[C@@H]2CC[C@@H](C)[C@@](O)(O2)C(=O)C(=O)N2CCCC[C@H]2C(=O)O[C@H]([C@H](C)C[C@@H]2CC[C@@H](OCCO)[C@H](OC)C2)CC(=O)[C@H](C)/C=C(\C)[C@@H](O)[C@@H](OC)C(=O)[C@H](C)C[C@H](C)/C=C/C=C/C=C/1C [Everolimus (RAD001)] | 11.2% | –
18 | Cn1c(COP(=O)(NCCBr)NCCBr)cnc1[N+](=O)[O-] [Evofosfamide (TH-302)] | 12.7% | –
19 | C=C1C[C@@H]2[C@H](CC[C@]3(C)C(=O)CC[C@@H]23)[C@@]2(C)C=CC(=O)C=C12 [Exemestane] | 11.1% | –
20 | O=C1[C@H](CC[C@H](O)c2ccc(F)cc2)[C@@H](c2ccc(O)cc2)N1c1ccc(F)cc1 [Ezetimibe] | 5.79% | –
21 | CC(=O)OCC(CCn1cnc2cnc(N)nc21)COC(C)=O [Famciclovir] | 0% | –
22 | NC(N)=Nc1nc(CSCC/C(N)=N/S(N)(=O)=O)cs1 [Famotidine] | 1.86% | –
23 | C[C@@H](O)[C@H]1C(=O)N2C(C(=O)O)=C([C@H]3CCCO3)S[C@H]12 [Faropenem Sodium] | 0% | –
24 | O=S(=O)(c1cccc2cnccc12)N1CCCNCC1 [Fasudil (HA-1077) HCl] | 0% | –
25 | NC(=O)c1nc(F)cnc1O [Favipiravir (T-705)] | 0.111% | –
26 | Cc1nc(-c2ccc(OCC(C)C)c(C#N)c2)sc1C(=O)O [Febuxostat] | 4.8% | –
27 | Cc1cnc(Nc2ccc(OCCN3CCCC3)cc2)nc1Nc1cccc(S(=O)(=O)NC(C)(C)C)c1 [Fedratinib (SAR302503, TG101348)] | 17.5% | –
28 | NC(=O)OCC(COC(N)=O)c1ccccc1 [Felbamate] | 22% | –

Row | SMILES | inhibition at 100 µM | %inhibition (100 µM, inhibitor)
29 | O=C(O)CCC(=O)c1ccc(-c2ccccc2)cc1 [Fenbufen] | 0% | –
30 | CCCCC(O)c1ccccc1 (stereo not shown) [Fenipentol] | 4.29% | –
31 | CC(C)OC(=O)C(C)(C)Oc1ccc(C(=O)c2ccc(Cl)cc2)cc1 [Fenofibrate] | 28.9% | –
32 | CC(C)(Oc1ccc(C(=O)c2ccc(Cl)cc2)cc1)C(=O)O [Fenofibric acid] | 0% | –
33 | Oc1ccc(C2CNCCc3c2cc(O)c(O)c3Cl)cc1 (stereo not shown) [Fenoldopam mesylate] | 0% | –
34 | CC(C(=O)O)c1cccc(Oc2ccccc2)c1 (stereo not shown) [Fenoprofen Calcium] | – | 9.442%
35 | CC(C(=O)O)c1cccc(Oc2ccccc2)c1 (stereo not shown) [Fenoprofen calcium hydrate] | 8.96% | –
36 | O=C1NCC2(CCN(CCc3ccccc3)CC2)O1 [Fenspiride HCl] | 26.5% | –
37 | Clc1ccc(C(Cn2ccnc2)OCc2ccc(Sc3ccccc3)cc2)c(Cl)c1 (stereo not shown) [Fenticonazole Nitrate] | 0% | –
38 | CC(C)C(=O)Oc1ccc(CO)cc1[C@H](CCN(C(C)C)C(C)C)c1ccccc1 [Fesoterodine Fumarate] | 0% | –
39 | CC(C)(C(=O)O)c1ccc(C(O)CCCN2CCC(C(O)(c3ccccc3)c3ccccc3)CC2)cc1 (stereo not shown) [Fexofenadine HCl] | 9.61% | –
40 | CCc1c(Cl)c(O)c(Cl)c(O)c1C(=O)O[C@H]1[C@H](O)[C@H](OC)[C@H](OC/C2=C\C=C\C[C@H](O)/C(C)=C/[C@H](CC)[C@@H](O[C@@H]3OC(C)(C)[C@@H](OC(=O)C(C)C)[C@H](O)[C@@H]3O)/C(C)=C/C(C)=C/C[C@@H]([C@@H](C)O)OC2=O)O[C@@H]1C [Fidaxomicin] | 5.76% | –
41 | O=C(Nc1nc2cccc(-c3ccc(CN4CCS(=O)(=O)CC4)cc3)n2n1)C1CC1 [Filgotinib (GLPG0634)] | 17% | –
42 | CCCCc1nc(C)c(CC(=S)N(C)C)c(=O)n1Cc1ccc(-c2ccccc2-c2nnn[nH]2)cc1 [Fimasartan] | 22.3% | –
43 | CC(C)(C)NC(=O)[C@H]1CC[C@H]2[C@@H]3CC[C@H]4NC(=O)C=C[C@]4(C)[C@H]3CC[C@]12C [Finasteride] | 0% | –
44 | CCCCCCCCc1ccc(CCC(N)(CO)CO)cc1 [Fingolimod (FTY720) HCl] | 33% | –
45 | CN1CC[C@H](c2c(O)cc(O)c3c(=O)cc(-c4ccccc4Cl)oc23)[C@H](O)C1 [Flavopiridol (Alvocidib)] | 50.4% | –
46 | Cc1c(-c2ccccc2)oc2c(C(=O)OCCN3CCCCC3)cccc2c1=O [Flavoxate HCl] | 0% | –
47 | O=c1[nH]c2ccccc2n1CCN1CCN(c2cccc(C(F)(F)F)c2)CC1 [Flibanserin] | 0% | –
48 | CCC(=O)c1c(O)cc(O)cc1O [Flopropione] | 7.24% | –
49 | CS(=O)(=O)c1ccc([C@@H](O)[C@@H](CF)NC(=O)C(Cl)Cl)cc1 [Florfenicol] | 30.4% | –
50 | O=c1[nH]c(=O)n([C@H]2C[C@H](O)[C@@H](CO)O2)cc1F [Floxuridine] | 0% | –
51 | COC(=O)Nc1nc2cc(C(=O)c3ccc(F)cc3)ccc2[nH]1 [Flubendazole] | 4.36% | –
52 | Cc1onc(-c2c(F)cccc2Cl)c1C(=O)N[C@@H]1C(=O)N2[C@@H]1SC(C)(C)[C@@H]2C(=O)O [Flucloxacillin sodium] | 1.41% | –
53 | OC(Cn1cncn1)(Cn1cncn1)c1ccc(F)cc1F [Fluconazole] | 16.6% | –
54 | Nc1nc(=O)[nH]cc1F [Flucytosine] | 0% | –
55 | Nc1nc(F)nc2c1ncn2[C@@H]1O[C@H](CO)[C@@H](O)[C@@H]1O [Fludarabine] | 12.7% | –
